Experimental findings from the NIST ThermoML archive (doi:10.1021/je050039p) are described below.

The conditions of the data set: Crystal 1; visual observation.

Numbers after ± are expanded uncertainties.

Take `c1ccccc1` [benzene]: the Normal melting temperature was 5.90 ± 0.5 °C.

For `CCCCCCCCCCCCC` [tridecane], the Normal melting temperature is -4.14 ± 0.5 °C.
